Assay [1] in a line: (§1) Inhibition of Clostridium perfringens ATCC 10543 sialidase Nan1 c-terminal catalytic domain using 4-methylumbelliferyl-alpha-D-N-acetylneuraminic acid sodium salt hydrate as substrate by fluorimetric analysis.
The subject of assay [2] is Clostridium perfringens. Described as §1.
The test system of assay [3] is Clostridium perfringens. Briefly: Competitive inhibition of Clostridium perfringens ATCC 10543 sialidase Nan1 c-terminal catalytic domain using 4-methylumbelliferyl-alpha-D-N-acetylneuraminic acid sodium salt hydrate as substrate by Lineweaver-Burk and Dixon plot analysis.
In assay [4] the target is Neuraminidase (Influenza A virus (strain A/Brevig Mission/1/1918 H1N1) (Influenza Avirus (strain A/South Carolina/1/1918 H1N1))) (UniProt Q9IGQ6). Briefly: (§2) Inhibition of recombinant influenza A virus H1N1 A/Bervig_Mission/1/18 sialidase activity using 4-methylumbelliferyl-alpha-D-N-acetylneuraminic acid sodium salt hydrate as substrate by fluorimetric analysis. Conditions: Influenza A virus (A/Brevig Mission/1/1918(H1N1)).
Chain of Neuraminidase (Influenza A virus (strain A/Brevig Mission/1/1918 H1N1) (Influenza Avirus (strain A/South Carolina/1/1918 H1N1))) (Q9IGQ6 whole entry): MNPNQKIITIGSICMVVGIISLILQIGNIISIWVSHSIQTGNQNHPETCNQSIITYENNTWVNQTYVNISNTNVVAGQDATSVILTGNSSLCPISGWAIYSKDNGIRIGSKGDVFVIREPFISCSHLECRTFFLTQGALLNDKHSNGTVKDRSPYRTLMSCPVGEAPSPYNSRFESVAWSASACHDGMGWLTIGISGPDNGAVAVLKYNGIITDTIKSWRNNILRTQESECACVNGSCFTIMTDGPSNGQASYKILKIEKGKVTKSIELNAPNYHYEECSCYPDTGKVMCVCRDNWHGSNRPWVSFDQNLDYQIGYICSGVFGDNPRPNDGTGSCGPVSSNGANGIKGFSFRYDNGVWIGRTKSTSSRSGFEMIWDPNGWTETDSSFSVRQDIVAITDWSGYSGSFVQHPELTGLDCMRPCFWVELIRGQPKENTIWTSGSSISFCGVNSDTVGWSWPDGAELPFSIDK

The target of assay [5] is Neuraminidase (Influenza A virus (strain A/Brevig Mission/1/1918 H1N1) (Influenza Avirus (strain A/South Carolina/1/1918 H1N1)), UniProt Q9IGQ6). The description is as §2. Further details: species or system Influenza A virus (A/Brevig Mission/1/1918(H1N1)).
Chain of Neuraminidase (Influenza A virus (strain A/Brevig Mission/1/1918 H1N1) (Influenza Avirus (strain A/South Carolina/1/1918 H1N1)), UniProt Q9IGQ6) (Q9IGQ6 whole entry): as above
Assay [6] concerns the target Neuraminidase (Influenza A virus (strain A/Brevig Mission/1/1918 H1N1) (Influenza Avirus (strain A/South Carolina/1/1918 H1N1))) (UniProt Q9IGQ6). Kind of assay: Noncompetitive inhibition of recombinant influenza A virus H1N1 A/Bervig_Mission/1/18 sialidase activity using 4-methylumbelliferyl-alpha-D-N-acetylneuraminic acid sodium salt hydrate as substrate by Lineweaver-Burk and Dixon plot analysis. The note with it: Influenza A virus (A/Brevig Mission/1/1918(H1N1)).

Assay [7] concerns Clostridium perfringens. Kind of assay: Inhibition of Clostridium perfringens ATCC 10543 sialidase Nan1 c-terminal catalytic domain using 4-methylumbelliferyl-alpha-D-N-acetylneuraminic acid sodium salt hydrate as substrate at IC50 concentration pre-incubated for 10 mins prior substrate addition by fluorimetric analysis. The note with it: TDE = time-dependent effect.
Assay [8] can be described thus: Reversible inhibition of Clostridium perfringens ATCC 10543 sialidase Nan1 c-terminal catalytic domain using 4-methylumbelliferyl-alpha-D-N-acetylneuraminic acid sodium salt hydrate as substrate compound pre-incubated prior to substrate addition by fluorimetric analysis. Conditions: read-out: Ki(app).
Assay [9] is described as follows: Inhibition of alpha-glucosidase.
Assay [10] can be described thus: Inhibition of beta-glucosidase at 200 uM.
Assay [11] in a line: Inhibition of rhamnosidase at 200 uM.
Assay [12] is described as follows: Inhibition of alpha-glucosidase at 200 uM.
Assay [13] concerns the target Neuraminidase (Influenza A virus (strain A/Brevig Mission/1/1918 H1N1) (Influenza Avirus (strain A/South Carolina/1/1918 H1N1))) (UniProt Q9IGQ6). Kind of assay: Inhibition of recombinant influenza A virus H1N1 A/Bervig_Mission/1/18 sialidase activity using 4-methylumbelliferyl-alpha-D-N-acetylneuraminic acid sodium salt hydrate as substrate at 200 uM by fluorimetric analysis. Conditions: Influenza A virus (A/Brevig Mission/1/1918(H1N1)).

Active and inactive are the calls of the source. The calls are words filed in the database; no cut-off is given here.

As a reminder, the IC50 is the point on the concentration scale where inhibition reaches its midpoint. Turning to `CC(=O)O[C@H](CC=C(C)C)C1=CC(=O)c2c(O)ccc(O)c2C1=O` [ACETYLSHIKONIN], the IC50 was 2500 nM in [1], 41.4 µM in assay [5] and 158 µM in assay [9]. Moreover, the inhibition result in the assay on Clostridium perfringens [2] is “Dose-dependent effect”; in assay [4], “Dose-dependent effect”; in the assay on Clostridium perfringens [7], “tde”. Moreover, in the assay on Clostridium perfringens [3], the Kic was 1.1 µM. Besides, the inhibition entry in assay [6] is “Active”. Further, in assay [8], the Ki was 1010 nM. Moreover, the inhibition result in [10] and in assay [11] was “inactive” throughout.
For `CC(C)=CC[C@@H](OC(=O)CC(C)(C)O)C1=CC(=O)c2c(O)ccc(O)c2C1=O` [BETA-HYDROXYISOVALERYLSHIKONIN], the IC50 is 3400 nM in assay [1] and 40.5 µM in [5]. Besides, the figures for the inhibition entry (in the assay on Clostridium perfringens [2]; in [4]; in the assay with Clostridium perfringens [7]) were “Dose-dependent effect”, “Dose-dependent effect” and “tde”, respectively. The Kic with Clostridium perfringens [3] was 0.8 µM. Also, in assay [6], the inhibition entry is “Active”. The Ki in [8] came out at 2240 nM. Moreover, the inhibition entry in assay [12], in [10] and in assay [11] was “inactive” throughout.
In the case of `CC(C)=CCCC1=CC(=O)c2c(O)ccc(O)c2C1=O` [DEOXYSHIKONIN], the values for the IC50 in assay [1] and in [5] were 27500 nM and 63.4 µM, respectively. Further, the figures for the inhibition result (with Clostridium perfringens [2]; in assay [4]; in the assay with Clostridium perfringens [7]) were “Dose-dependent effect”, “Dose-dependent effect” and “tde”, respectively. For the same compound, in the assay with Clostridium perfringens [3], the Kic is 15.9 µM. For the same compound, the inhibition result in assay [6] was “Active”. Also, in assay [8], the Ki was 11900 nM. The inhibition result in assay [12], in [10] and in assay [11] was “inactive” throughout.
Turning to `CC(C)=CC[C@@H](OC(=O)C=C(C)C)C1=CC(=O)c2c(O)ccc(O)c2C1=O` [DIMETHYLACRYLSHIKONIN], the half-maximal inhibitory concentration (IC50) worked out at 1900 nM in assay [1], 47.3 µM in assay [5] and 141 µM in assay [9]. Besides, the values for the inhibition result (in the assay on Clostridium perfringens [2]; in assay [4]; in the assay with Clostridium perfringens [7]) were “Dose-dependent effect”, “Dose-dependent effect” and “tde”, respectively. For the same compound, in the assay with Clostridium perfringens [3], the Kic was 0.6 µM. The inhibition result in assay [6] was “Active”. The Ki in [8] was 1750 nM. The inhibition entry in assay [10] and in [11] was “inactive” throughout.
Regarding `CC(C)=CC[C@@H](OC(=O)C(C)C)C1=CC(=O)c2c(O)ccc(O)c2C1=O` [ISOBUTYLSHIKONIN], the figures for the IC50 in [1], in [5] and in assay [9] were 2900 nM, 40.5 µM and 144 µM, respectively. Further, the inhibition entry in the assay with Clostridium perfringens [2] was “Dose-dependent effect”; in [4], “Dose-dependent effect”; in the assay on Clostridium perfringens [7], “tde”. In addition, the Kic in the assay on Clostridium perfringens [3] came to 0.9 µM. Further, the inhibition result in assay [6] is “Active”. Moreover, the Ki in assay [8] turned out to be 260 nM. Moreover, the inhibition entry in assay [10] and in assay [11] was “inactive” in each case.
In the case of `CC(C)=CC[C@@H](O)C1=CC(=O)c2c(O)ccc(O)c2C1=O` [SHIKONIN], the figures for the IC50 in [1] and in [5] were 53800 nM and 34.1 µM, respectively. Moreover, the values for the inhibition result (in the assay on Clostridium perfringens [2]; in assay [4]; in the assay with Clostridium perfringens [7]) were “Dose-dependent effect”, “Dose-dependent effect” and “tde”, respectively. In addition, the Kic in the assay on Clostridium perfringens [3] was found to be 21.4 µM. Besides, in assay [6], the inhibition entry is “Active”. Moreover, the Ki in assay [8] amounted to 58800 nM. The inhibition entry in [12], in assay [10] and in assay [11] was “inactive” throughout.
In the case of `CC(C)=CCC(OC(=O)CC(C)C)c1coc(-c2cc(O)ccc2O)c1` (configuration not stated) [SHIKONOFURAN C], the IC50 in assay [1] was 600 nM; in [5], greater than 100 µM; in [9], 20.8 µM. For the same compound, the inhibition result was “Dose-dependent effect” in the assay with Clostridium perfringens [2] and “tde” in the assay on Clostridium perfringens [7]. In addition, the Kic in the assay on Clostridium perfringens [3] came out at 0.2 µM. Moreover, in assay [8], the Ki was determined as 150 nM. Moreover, the inhibition entry in assay [13], in assay [10] and in assay [11] was “inactive” each time.
Turning to `CC(C)=CCC(OC(=O)C(C)C)c1coc(-c2cc(O)ccc2O)c1` (configuration not stated) [SHIKONOFURAN D], the IC50 in assay [1] was 1000 nM; in assay [5] it was greater than 100 µM; in [9], 37.8 µM. The inhibition entry was “Dose-dependent effect” in the assay on Clostridium perfringens [2] and “tde” with Clostridium perfringens [7]. For the same compound, the Kic with Clostridium perfringens [3] stood at 0.3 µM. Moreover, the Ki in assay [8] came out at 210 nM. Moreover, the inhibition result in [13], in assay [10] and in [11] was “inactive” each time.
Turning to `CC(C)=CCC(OC(=O)C=C(C)C)c1coc(-c2cc(O)ccc2O)c1` (configuration not stated) [SHIKONOFURAN E], the half-inhibitory concentration (IC50) is 200 nM in assay [1], greater than 100 µM in assay [5] and 26.6 µM in assay [9]. The inhibition result in the assay with Clostridium perfringens [2] is “Dose-dependent effect”; with Clostridium perfringens [7], “tde”. In addition, the Kic with Clostridium perfringens [3] was 0.1 µM. In [8], the Ki amounted to 50 nM. In addition, the inhibition result in assay [13], in [10] and in assay [11] was “inactive” throughout.
In assay [9], `OCC(CO)N[C@H]1C[C@](O)(CO)[C@@H](O)[C@H](O)[C@H]1O` [VOGLIBOSE] registered an IC50 of 23.4 µM.
